The source of these data is ChEMBL document CHEMBL1137784, “L337H mutant of rat neuronal nitric oxide synthase resembles human neuronal nitric oxide synthase toward inhibitors” (J Med Chem, 2009).

Experiment [1] deals with Nitric oxide synthase 1 (Rattus norvegicus, UniProt P29476). Put plainly: Inhibition of wild type rat nNOS by hemoglobin capture assay.
In experiment [2] the target is T1, Nitric oxide synthase 1 (Homo sapiens, UniProt P29475). Description: Inhibition of human nNOS by hemoglobin capture assay.
T1 sequence (P29475 whole entry): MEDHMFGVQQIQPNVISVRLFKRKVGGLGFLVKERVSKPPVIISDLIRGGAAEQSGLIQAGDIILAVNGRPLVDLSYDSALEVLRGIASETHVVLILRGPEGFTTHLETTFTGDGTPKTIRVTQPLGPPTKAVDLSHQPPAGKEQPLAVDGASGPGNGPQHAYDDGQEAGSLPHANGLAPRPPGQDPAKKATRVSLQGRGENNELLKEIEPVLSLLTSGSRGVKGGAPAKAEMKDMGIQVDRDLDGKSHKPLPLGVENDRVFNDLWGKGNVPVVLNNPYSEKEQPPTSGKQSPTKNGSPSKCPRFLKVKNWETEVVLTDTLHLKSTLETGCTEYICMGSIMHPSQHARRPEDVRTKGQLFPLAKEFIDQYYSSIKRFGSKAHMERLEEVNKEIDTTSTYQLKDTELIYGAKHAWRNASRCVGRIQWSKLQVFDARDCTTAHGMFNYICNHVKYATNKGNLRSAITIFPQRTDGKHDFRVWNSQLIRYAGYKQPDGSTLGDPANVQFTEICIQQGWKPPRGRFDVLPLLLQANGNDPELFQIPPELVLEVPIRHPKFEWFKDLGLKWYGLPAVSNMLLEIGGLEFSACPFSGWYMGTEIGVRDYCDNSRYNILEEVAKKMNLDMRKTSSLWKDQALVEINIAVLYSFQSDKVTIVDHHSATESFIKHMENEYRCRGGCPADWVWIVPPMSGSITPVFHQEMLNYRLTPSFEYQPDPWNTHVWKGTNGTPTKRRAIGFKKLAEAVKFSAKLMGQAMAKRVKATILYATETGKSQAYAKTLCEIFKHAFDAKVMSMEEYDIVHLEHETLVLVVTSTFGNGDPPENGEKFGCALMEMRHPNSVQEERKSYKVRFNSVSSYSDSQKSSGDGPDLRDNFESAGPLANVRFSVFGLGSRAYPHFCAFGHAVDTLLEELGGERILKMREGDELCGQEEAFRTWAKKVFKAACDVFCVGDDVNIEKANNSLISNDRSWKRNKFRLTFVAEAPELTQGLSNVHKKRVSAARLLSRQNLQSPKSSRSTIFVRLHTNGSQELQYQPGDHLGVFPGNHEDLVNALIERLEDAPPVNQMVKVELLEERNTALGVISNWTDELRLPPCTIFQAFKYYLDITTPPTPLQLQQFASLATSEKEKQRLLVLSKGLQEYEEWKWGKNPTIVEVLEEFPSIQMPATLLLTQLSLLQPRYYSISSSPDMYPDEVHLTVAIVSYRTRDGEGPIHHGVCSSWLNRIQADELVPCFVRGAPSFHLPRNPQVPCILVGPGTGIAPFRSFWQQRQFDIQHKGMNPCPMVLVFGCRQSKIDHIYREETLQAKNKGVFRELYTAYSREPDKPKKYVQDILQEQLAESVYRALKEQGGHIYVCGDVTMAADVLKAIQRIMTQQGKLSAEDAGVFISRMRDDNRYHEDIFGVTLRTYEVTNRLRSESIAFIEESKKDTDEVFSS
Experiment [3] addresses Nitric oxide synthase 1 (Rattus norvegicus, UniProt P29476, L337H).
Experiment [4] is described as follows: Selectivity ratio of IC50 for wild type rat nNOS to IC50 for human nNOS by hemoglobin capture assay.
The species named for the next experiment is Rattus norvegicus. Put plainly: Selectivity ratio of IC50 for wild type rat nNOS to IC50 for rat nNOS L337H mutant by hemoglobin capture assay.
The target in experiment [5] is T1, Nitric oxide synthase 1. Put plainly: Inhibition of human nNOS by radioactivity assay.

The IC50 is the concentration that inhibits the measured activity by half.

Nitric oxide synthase 1 (Rattus norvegicus, UniProt P29476), sequence (P29476 whole entry): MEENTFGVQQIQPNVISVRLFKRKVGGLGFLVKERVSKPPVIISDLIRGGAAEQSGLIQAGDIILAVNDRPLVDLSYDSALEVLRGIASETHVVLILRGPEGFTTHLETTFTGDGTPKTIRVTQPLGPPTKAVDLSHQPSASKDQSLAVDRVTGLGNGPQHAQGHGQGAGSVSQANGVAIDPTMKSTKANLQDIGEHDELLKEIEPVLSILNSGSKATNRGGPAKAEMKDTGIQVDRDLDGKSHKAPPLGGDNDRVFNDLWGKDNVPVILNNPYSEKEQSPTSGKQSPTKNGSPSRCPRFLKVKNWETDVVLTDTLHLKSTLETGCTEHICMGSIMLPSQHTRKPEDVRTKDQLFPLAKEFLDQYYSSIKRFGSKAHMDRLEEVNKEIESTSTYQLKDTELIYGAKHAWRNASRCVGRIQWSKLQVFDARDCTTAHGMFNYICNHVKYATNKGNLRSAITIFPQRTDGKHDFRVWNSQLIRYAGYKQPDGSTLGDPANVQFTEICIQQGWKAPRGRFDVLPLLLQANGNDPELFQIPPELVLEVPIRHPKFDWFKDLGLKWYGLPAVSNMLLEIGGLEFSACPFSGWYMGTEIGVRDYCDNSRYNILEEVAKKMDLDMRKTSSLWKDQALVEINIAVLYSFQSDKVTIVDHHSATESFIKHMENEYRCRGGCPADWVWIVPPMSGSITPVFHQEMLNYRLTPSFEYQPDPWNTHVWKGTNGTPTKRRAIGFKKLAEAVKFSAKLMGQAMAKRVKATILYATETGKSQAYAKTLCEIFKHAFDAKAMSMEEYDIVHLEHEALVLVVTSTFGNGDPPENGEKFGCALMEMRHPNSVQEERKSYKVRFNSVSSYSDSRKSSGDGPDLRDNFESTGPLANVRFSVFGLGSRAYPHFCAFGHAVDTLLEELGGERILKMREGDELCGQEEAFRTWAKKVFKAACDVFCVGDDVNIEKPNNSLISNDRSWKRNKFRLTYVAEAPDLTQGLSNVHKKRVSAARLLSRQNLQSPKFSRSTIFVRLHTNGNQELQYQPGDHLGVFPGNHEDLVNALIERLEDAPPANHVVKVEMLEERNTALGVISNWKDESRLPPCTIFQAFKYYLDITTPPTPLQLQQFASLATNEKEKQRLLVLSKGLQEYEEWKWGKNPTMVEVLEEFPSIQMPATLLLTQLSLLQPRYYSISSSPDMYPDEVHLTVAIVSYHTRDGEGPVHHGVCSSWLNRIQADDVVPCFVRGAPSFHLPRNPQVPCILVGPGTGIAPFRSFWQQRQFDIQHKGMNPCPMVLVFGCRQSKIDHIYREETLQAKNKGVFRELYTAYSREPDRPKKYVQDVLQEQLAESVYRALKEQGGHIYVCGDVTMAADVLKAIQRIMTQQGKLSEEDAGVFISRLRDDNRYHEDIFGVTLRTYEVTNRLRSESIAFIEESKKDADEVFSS
Nitric oxide synthase 1 (Rattus norvegicus, UniProt P29476, L337H), sequence (P29476 whole entry L337H): as the sequence (P29476 whole entry) above, with L337H counted along it

Consider `Cc1cc(N)nc(CC2CNCC2NC(=O)CNCCc2cccc(F)c2)c1` (racemic), for which the IC50 came to 0.7 µM against Nitric oxide synthase 1 [1], 3 µM on Nitric oxide synthase 1 [2] and 4 µM against Nitric oxide synthase 1 [3]. For the same molecule, the Ratio IC50 came out at 4.3 in experiment [4] and 5.7 in the experiment filed under Rattus norvegicus.
As for `Cc1cc(N)nc(CC2CNCC2NCCN)c1` (racemic), the 50% inhibitory concentration (IC50) was found to be 1.3 µM on Nitric oxide synthase 1 [1], 4 µM at Nitric oxide synthase 1 [2] and 3.4 µM against Nitric oxide synthase 1 [3]. The Ratio IC50 in experiment [4] came to 3.1; in the experiment listed under Rattus norvegicus, 2.7.
Consider `Cc1cc(N)nc(CC2CNCC2NCCNCCc2ccc(Cl)cc2)c1` (racemic), for which the IC50 at Nitric oxide synthase 1 [1] was 1.1 µM; against Nitric oxide synthase 1 [2] it was 4.2 µM; at Nitric oxide synthase 1 [3] it was 5 µM. Moreover, the Ratio IC50 in experiment [4] worked out at 3.8; in the experiment filed under Rattus norvegicus, 4.6.
With `Cc1cc(C)nc(N)c1`, the half-inhibitory concentration (IC50) at Nitric oxide synthase 1 [1], at Nitric oxide synthase 1 [2] and against Nitric oxide synthase 1 [3] was 0.1 µM throughout. The results for the Ratio IC50 (in experiment [4]; in the experiment filed under Rattus norvegicus) were 1 and 1.1, respectively.
Turning to `Cc1cc(N)nc(CC2CNCC2NCCOCCc2cccc(F)c2)c1` (racemic), the IC50 on Nitric oxide synthase 1 [1] was determined as 2.9 µM; on Nitric oxide synthase 1 [2], 6.6 µM; against Nitric oxide synthase 1 [3] it was 5.5 µM. Also, the Ratio IC50 in experiment [4] is 2.4; in the experiment listed under Rattus norvegicus it was 1.9.
In the case of `Cc1cc(N)nc(CC2CNCC2OCCNCCc2cccc(F)c2)c1` (racemic), the values for the IC50 on Nitric oxide synthase 1 [2] and at Nitric oxide synthase 1 [5] were 0.6 µM and 0.7 µM, respectively.
`NCCNC1CNCC1Cc1cccc(N)n1` (racemic) returned a half-maximal inhibitory concentration (IC50) against Nitric oxide synthase 1 [2] of 15.3 µM.
